Laboratory results as given in patent publication US20250290928A1, “METHOD, KIT AND DEVICE FOR DETECTING EXTRACELLULAR VESICLES” (priority 2022, published 2025).

Assays:
[1] = tested on: β-galactosidase activity inherent in the MDA-MB-231-derived extracellular vesicles; experiment: Evaluation of β-galactosidase activity of MDA-MB-231-derived extracellular vesicles in 96-well plate; assay type: biochemical, Human; conditions: Example 33, 30° C., no CD9/CD63/CD81 detection system
Method: For detection of MMP14 activity, 1 mM Custom #2 and a 100 µM resorufin β-D-galactopyranoside solution were diluted with the buffer ([…]) containing 10 μM Custom #2 and 5 μM resorufin β-D-galactopyranoside. In addition, the solution was diluted 2-fold with the buffer (4) to prepare a detection solution (2). Nonfluorescent resorufin β-D-galactopyranoside is degraded by β-galactosidase to produce fluorescent resorufin. In this case, the maximum wavelengths of excitation and fluorescence of resorufin are 570 nm and 585 nm, respectively.
In addition, 50 μL of the detection solution (1) was added to 50 μL of each of the prepared standard samples with seven concentrations and the sample for BG measurement, and the resultant solution was used in measurement of MMP14 activity and β-galactosidase activity with a 96-well plate.
Evaluation was performed in the same manner as in Example 1 except that the reaction temperature was set to 30° C. ΔRFU was calculated by subtracting the measured value of the sample for BG measurement from the measured value of each of the samples. In this case, resorufin produced by β-galactosidase activity was simultaneously measured at an excitation wavelength of 545±20 nm and a fluorescence wavelength of 590±20 nm, and ΔRFU was calculated similarly.

[2] = tested on: CD9/CD63/CD81 in the extracellular vesicles; experiment: Digital CD9/CD63/CD81 sandwich detection with biotinylated detection antibody and streptavidin-conjugated β-galactosidase; assay type: binding, Human; conditions: Example 33, 30° C., 4 h
Method: An anti-CD9 antibody (ab58989), an anti-CD63 antibody (ab59479), and an anti-CD81 antibody (ab59477) were buffer-exchanged into Biotinylation Reaction Buffer to provide an antibody solution. A biotinylation reagent NHS-PEG4-Biotin was added to the solution, and the mixture was stirred and then subjected to a reaction at room temperature for 30 minutes. After that, the resultant was washed with Biotinylation Reaction Buffer, and then recovered with Biotinylation Reaction Buffer to provide a biotinylated detection antibody solution. The biotinylated detection antibody solution was stored at 4° C. until use.
For detection of MMP14 activity, 1 mM Custom #2 and a 100 µM resorufin β-D-galactopyranoside solution were diluted with the buffer (4) to prepare a MMP14 and CD9/CD63/CD81 cocktail detection solution (1) containing 10 μM Custom #2 and 5 μM resorufin β-D-galactopyranoside. In addition, the solution was diluted 2-fold with the buffer (4) to prepare a detection solution (2). Nonfluorescent resorufin β-D-galactopyranoside is degraded by β-galactosidase to produce fluorescent resorufin. In this case, the maximum wavelengths of excitation and fluorescence of resorufin are 570 nm and 585 nm, respectively.
The observation of fluorescence derived from each fluorescent substance was performed under the same conditions as in Example 19 to acquire a fluorescence image. In this case, a TRITC filter was used in the observation of the fluorescence from resorufin.

O=c1ccc2nc3ccc(O[C@@H]4O[C@H](CO)[C@H](O)[C@H](O)[C@H]4O)cc3oc-2c1 [resorufin β-D-galactopyranoside]
β-galactosidase activity (temporal changes in fluorescence intensity) [1]: the activity was not able to be detected at all
Expected value λ (CD9/CD63/CD81) ([2]; EV 0 (BG)): 0.00927
Number of positives (CD9/CD63/CD81) ([2]; EV 0 (BG)): 20
Expected value λ (CD9/CD63/CD81) ([2]; EV X1 (sample 10 μg/mL)): 2.86
Number of positives (CD9/CD63/CD81) ([2]; EV X1 (sample 10 μg/mL)): 2,166
Expected value λ (CD9/CD63/CD81) ([2]; EV X1/3): 1.87
Number of positives (CD9/CD63/CD81) ([2]; EV X1/3): 2,315
Expected value λ (CD9/CD63/CD81) ([2]; EV X1/9): 0.750
Number of positives (CD9/CD63/CD81) ([2]; EV X1/9): 1,544
Expected value λ (CD9/CD63/CD81) ([2]; EV X1/27): 0.339
Number of positives (CD9/CD63/CD81) ([2]; EV X1/27): 725
Expected value λ (CD9/CD63/CD81) ([2]; EV X1/81): 0.0928
Number of positives (CD9/CD63/CD81) ([2]; EV X1/81): 144
Expected value λ (CD9/CD63/CD81) ([2]; EV X1/243): 0.0427
Number of positives (CD9/CD63/CD81) ([2]; EV X1/243): 78
Expected value λ (CD9/CD63/CD81) ([2]; EV X1/729): 0.0240
Number of positives (CD9/CD63/CD81) ([2]; EV X1/729): 44
